# Measurements published in patent US9511086B2, “Method for improving immune system function by administering agents that inhibit DNA-dependent protein kinase-directed apoptosis” (The Board of Trustees of the Leland Stanford Junior …, priority 2010, dated 2016).
# Key:
# [1] = system: CD4+CD45RO− T cells from control donors; assay: T-cell apoptosis by flow cytometry staining for PI, control T cells; format: cell-based, human
# Experimental: FIG. 5. Inhibition of DNA-PKcs activity protects RA T cells from apoptosis. CD4+CD45RO− T cells were isolated from 6 control donors and 7 RA patients. Cells were maintained in culture without stimulation for 48 h and then were treated with the DNA-PKcs inhibitor IC86621 (50 nM, 100 nM) or vehicle for 24 h. Cells were harvested and (A) T-cell apoptosis was measured by flow cytometry staining for PI. Representative cytometric data from one patient and one control are shown. (B) Frequencies of PI-positive T-cells in the absence and presence of the DNA-PKcs inhibitor from 6 controls and 7 RA patients are presented as mean±SEM.
# Peripheral blood mononuclear cells (PBMC) were separated from whole blood with Lymphocyte Separation Medium (Mediatech Inc., Herndon, Va.). CD45RO^− cells were negatively selected with microbeads (Miltenyi Biotec Inc., Auburn, Calif.), and the naïve CD4^+CD45RO^− population was subsequently selected with CD4 microbeads (autoMACS, Miltenyi Biotec Inc.). […]
# To quantify T-cell apoptosis, CD4^+CD45RO^− cells were washed and suspended in 500 μl FACS buffer supplemented with EasyComp Blank Particles (Spherotech, Lake Forest, Ill.). Uptake of PI (Sigma-Aldrich) was determined by flow cytometry. Apoptotic cells were detected with PE-Annexin V (BD Biosciences, San Jose, Calif.) and 7-AAD (BD Biosciences).
# [2] = system: Bim; assay: Bim protein level by flow cytometry in RA T cells; format: cell-based, human; details: treated vs untreated
# Experimental: (§1) FIG. 8. The DNA-PKcs-JNK pathway upregulates the apoptogenic molecules Bim and Bmf in RA CD4+ T cells. CD4+CD45RO− T cells were isolated from the peripheral blood of 6 controls and 6 RA patients. Cells were maintained in culture without mitogenic stimulation for 72 h. (A) Puma, Noxa, Bim and Bmf transcript levels in freshly isolated cells were quantified by qPCR. Data are presented as mean±SEM. (B) Flow cytometry analysis of Bim levels in control and RA naïve T cells after 72 h of culture. Expression of Bim protein in n=5 RA and n=5 controls samples is given as MFI of Alexa Fluor 488 Bim. (C) Flow cytometry analysis of Bmf levels in control and RA naïve T cells. Expression of Bmf protein in n=6 RA and n=4 controls samples is given as MFI of PE Bmf. (D) Bcl-2 protein levels were analyzed by flow cytometry. Expression of Bcl-2 protein in n=6 RA and n=6 control samples is given as MFI of FITC Bcl-2. (E) Bim protein level in the absence and presence of the DNA-PKcs inhibitor were analyzed by flow cytometry in samples from 4 RA patients. […]
# (§2) For intracellular staining, cells were fixed directly with 1.5% formaldehyde for 10 min at room temperature and resuspended in 90% methanol. […] Proteins or 8-oxoguanine expression were detected by an LSRII flow cytometer (BD Biosciences). Data were analyzed by FlowJo software (Tree Star Inc., Ashland, Oreg.). […]
# [3] = system: Bmf; assay: Bmf protein level by flow cytometry in RA T cells; format: cell-based, human; details: treated vs untreated
# Experimental: as §1, §2
# [4] = system: protein kinase A; details: concentrations of up to 100 μM; cited from earlier work
# [5] = system: protein kinase C; details: concentrations of up to 100 μM; cited from earlier work
# [6] = target: cyclin-dependent kinase 2 (Homo sapiens, UniProt P24941); details: concentrations of up to 100 μM; cited from earlier work
# [7] = target: aurora-related kinase 2 (Homo sapiens, UniProt Q96GD4); details: concentrations of up to 100 μM; cited from earlier work
# [8] = target: ATR (Homo sapiens, UniProt Q13535); details: concentrations of up to 100 μM; cited from earlier work
# [9] = target: ATM (Homo sapiens, UniProt Q13315); details: concentrations of up to 100 μM; cited from earlier work
# aurora-related kinase 2, sequence (Q96GD4 whole entry): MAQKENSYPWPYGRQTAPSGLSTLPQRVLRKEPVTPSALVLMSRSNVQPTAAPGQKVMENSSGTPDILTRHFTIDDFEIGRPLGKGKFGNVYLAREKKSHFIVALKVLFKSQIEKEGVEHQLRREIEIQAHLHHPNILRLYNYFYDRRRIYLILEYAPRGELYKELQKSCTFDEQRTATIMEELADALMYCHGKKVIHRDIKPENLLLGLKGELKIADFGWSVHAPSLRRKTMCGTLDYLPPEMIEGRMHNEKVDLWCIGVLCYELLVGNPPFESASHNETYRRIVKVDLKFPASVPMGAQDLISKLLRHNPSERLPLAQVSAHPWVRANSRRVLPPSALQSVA
# ATR, sequence (Q13535 whole entry): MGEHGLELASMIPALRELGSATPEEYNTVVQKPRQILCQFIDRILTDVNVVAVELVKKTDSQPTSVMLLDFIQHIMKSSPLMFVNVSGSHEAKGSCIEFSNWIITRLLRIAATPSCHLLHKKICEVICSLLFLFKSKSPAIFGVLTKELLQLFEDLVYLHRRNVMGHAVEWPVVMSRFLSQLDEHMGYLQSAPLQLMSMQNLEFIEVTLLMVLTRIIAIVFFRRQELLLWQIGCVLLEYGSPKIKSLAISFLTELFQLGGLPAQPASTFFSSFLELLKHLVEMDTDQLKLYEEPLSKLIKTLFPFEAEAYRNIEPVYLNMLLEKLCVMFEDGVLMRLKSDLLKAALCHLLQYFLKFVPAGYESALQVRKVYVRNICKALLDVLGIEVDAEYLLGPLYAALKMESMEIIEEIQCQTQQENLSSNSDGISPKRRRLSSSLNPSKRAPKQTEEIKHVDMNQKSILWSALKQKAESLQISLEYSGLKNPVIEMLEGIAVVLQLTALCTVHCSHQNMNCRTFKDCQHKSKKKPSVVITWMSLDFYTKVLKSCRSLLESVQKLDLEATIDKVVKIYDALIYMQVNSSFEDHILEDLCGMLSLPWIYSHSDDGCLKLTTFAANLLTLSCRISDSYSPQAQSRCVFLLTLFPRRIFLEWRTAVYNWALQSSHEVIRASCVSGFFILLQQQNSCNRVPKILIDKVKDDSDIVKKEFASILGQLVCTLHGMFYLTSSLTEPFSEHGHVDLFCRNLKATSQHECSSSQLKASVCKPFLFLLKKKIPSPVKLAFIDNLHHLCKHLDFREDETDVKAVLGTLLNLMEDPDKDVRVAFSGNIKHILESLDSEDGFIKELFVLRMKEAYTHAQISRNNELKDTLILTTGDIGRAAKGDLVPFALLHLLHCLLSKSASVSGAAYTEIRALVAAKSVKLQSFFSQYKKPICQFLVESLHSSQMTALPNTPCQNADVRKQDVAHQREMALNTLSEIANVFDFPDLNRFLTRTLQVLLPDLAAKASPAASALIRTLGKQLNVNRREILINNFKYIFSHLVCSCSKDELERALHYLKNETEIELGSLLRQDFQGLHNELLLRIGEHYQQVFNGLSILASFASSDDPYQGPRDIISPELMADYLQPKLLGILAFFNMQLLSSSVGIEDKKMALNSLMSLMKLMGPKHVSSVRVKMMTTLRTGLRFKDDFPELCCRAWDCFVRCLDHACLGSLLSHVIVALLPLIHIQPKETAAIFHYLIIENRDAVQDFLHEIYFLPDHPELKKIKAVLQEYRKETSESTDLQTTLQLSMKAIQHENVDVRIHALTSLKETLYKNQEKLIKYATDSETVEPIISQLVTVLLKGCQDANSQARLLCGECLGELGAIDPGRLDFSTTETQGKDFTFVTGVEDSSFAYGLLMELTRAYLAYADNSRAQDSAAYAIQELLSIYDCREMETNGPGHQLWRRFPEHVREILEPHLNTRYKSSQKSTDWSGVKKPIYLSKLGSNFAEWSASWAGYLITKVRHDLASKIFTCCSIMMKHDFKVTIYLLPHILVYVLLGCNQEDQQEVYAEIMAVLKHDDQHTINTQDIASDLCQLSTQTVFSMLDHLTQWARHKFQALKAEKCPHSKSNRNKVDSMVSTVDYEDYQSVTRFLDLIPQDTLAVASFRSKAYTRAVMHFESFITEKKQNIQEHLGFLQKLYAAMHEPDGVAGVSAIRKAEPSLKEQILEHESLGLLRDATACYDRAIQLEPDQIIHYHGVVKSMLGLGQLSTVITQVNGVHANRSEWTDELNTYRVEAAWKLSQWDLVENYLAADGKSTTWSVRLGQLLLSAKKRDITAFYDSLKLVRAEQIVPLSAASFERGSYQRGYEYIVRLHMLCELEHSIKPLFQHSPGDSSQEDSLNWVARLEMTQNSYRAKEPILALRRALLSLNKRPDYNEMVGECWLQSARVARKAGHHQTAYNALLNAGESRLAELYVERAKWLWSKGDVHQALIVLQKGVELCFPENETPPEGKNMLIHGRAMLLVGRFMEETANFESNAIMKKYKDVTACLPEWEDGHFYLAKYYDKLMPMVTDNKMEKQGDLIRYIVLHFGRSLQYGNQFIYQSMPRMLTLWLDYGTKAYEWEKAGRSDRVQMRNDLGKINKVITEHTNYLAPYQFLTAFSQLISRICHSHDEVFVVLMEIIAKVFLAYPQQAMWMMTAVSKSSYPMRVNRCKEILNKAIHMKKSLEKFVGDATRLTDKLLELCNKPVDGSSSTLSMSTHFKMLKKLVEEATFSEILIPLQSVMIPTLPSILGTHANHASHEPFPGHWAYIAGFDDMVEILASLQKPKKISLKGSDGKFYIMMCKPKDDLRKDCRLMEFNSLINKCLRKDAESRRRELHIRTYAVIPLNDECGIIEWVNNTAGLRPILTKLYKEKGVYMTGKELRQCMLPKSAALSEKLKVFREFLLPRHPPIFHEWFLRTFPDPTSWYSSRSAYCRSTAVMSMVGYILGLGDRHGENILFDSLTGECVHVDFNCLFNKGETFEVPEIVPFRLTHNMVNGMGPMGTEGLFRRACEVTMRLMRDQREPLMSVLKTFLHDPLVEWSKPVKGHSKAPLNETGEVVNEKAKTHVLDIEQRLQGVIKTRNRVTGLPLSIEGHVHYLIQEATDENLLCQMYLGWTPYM
# ATR, sequence (Q8WXE1 whole entry partner): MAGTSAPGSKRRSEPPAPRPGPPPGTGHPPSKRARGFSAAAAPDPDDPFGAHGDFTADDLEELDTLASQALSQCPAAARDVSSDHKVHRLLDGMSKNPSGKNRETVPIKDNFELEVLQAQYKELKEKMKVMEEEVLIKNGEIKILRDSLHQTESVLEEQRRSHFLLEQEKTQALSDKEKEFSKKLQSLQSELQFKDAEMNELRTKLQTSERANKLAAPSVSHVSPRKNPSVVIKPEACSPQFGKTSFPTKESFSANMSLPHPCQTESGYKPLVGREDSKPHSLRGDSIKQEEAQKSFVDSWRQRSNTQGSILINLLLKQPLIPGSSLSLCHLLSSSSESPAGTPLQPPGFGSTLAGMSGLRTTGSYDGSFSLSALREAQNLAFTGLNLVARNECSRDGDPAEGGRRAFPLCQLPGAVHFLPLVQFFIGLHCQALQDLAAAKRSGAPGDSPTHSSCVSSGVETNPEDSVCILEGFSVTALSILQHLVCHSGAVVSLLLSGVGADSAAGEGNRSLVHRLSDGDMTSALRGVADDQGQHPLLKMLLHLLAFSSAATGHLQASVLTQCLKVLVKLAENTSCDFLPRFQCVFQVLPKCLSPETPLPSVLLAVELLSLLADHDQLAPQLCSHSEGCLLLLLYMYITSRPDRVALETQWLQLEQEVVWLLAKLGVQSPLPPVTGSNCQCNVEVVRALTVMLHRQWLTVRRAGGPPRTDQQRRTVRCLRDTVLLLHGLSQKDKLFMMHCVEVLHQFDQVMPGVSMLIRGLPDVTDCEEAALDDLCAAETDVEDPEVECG
smiles,measurement,setting,value
"CC(=O)c1ccc(N2CCOCC2)cc1O [IC86621, 1-(2-hydroxy-4-morpholin-4-ylphenyl)ethanone]",apoptotic control T cells,"[1]; after 72 h of ex vivo culture, independent from treatment with the inhibitor",12-14%
same,survival in control T cells,"[1]; control T cells, inhibitor 50 nM, 100 nM for 24 h",essentially did not affect survival
same,intracellular Bim levels,[2],reduced
same,intracellular Bmf levels,[3],reduced
same,activity against protein kinase A,[4],neither activity
same,activity against protein kinase C,[5],neither activity
same,activity against cyclin-dependent kinase 2,[6],neither activity
same,activity against aurora-related kinase 2,[7],neither activity
same,activity against ATR,[8],neither activity
same,activity against ATM,[9],neither activity
